From paper PMC449707 (BMC Pharmacology, 2004)

System: whole bone marrow cells
Assay: Fibroblastic colony forming unit
Format: cell-based, rat
Settings: for effect on colony number of co-treatment with exogenous PGE2: 10 μM PDE inhibitor plus PGE2 as low as 0.1 nM; for effect on colony number, agent alone: 10 μM, CFU-f assay, no exogenous PGE2

Compound | effect on colony number of co-treatment with exogenous PGE2 | effect on colony number, agent alone
CC(C)Cn1c(=O)n(C)c(=O)c2[nH]cnc21 [IBMX, isobutylmethylxanthine] | almost maximal responses | significant stimulation in colony number
COc1ccc(C2CNC(=O)C2)cc1OC1CCCC1 (stereo not shown) [rolipram] | almost maximal responses | significant stimulation in colony number
